The values below come from patent US20240084258A1, “METHOD FOR PREPARING BROWN ADIPOCYTE” (KYOTO PREFECTURAL PUBLIC UNIVERSITY CORPORATION, priority 2015, published 2024).

Like-named read-outs stand apart in the source and are kept apart here.

For assay [1], the system named is human dermal fibroblasts (HDFs). As to the kind of experiment: UCP1 mRNA response of induced cells to Isoproterenol or FSK stimulation (Example 3). Type of assay: cell-based. The conditions noted are these: cells cultured 14 days in induction medium with D4476 in addition to T3 and Rosiglitazone; FIG. 3. The protocol:
10 μM Isoproterenol or FSK was added to these cells as described in the Figure. As a control, a group free of the addition was also prepared. After 5 hr, the culture medium was removed from each well by suction, the cells were washed with PBS(−) and total RNA was extracted from the cells with ISOGEN II. qRT-PCR was performed in the same manner as in Example 2. The mRNA level of UCP1 gene was quantified as a ratio to […] gene mRNA and calculated with the value of fibroblast cultured in the normal medium as 1.

Assay [2] shares this test system. In words: Oil Red O staining (Example 9). Type of assay: cell-based. As to conditions: D4476 2 μM in addition to Rosiglitazone and T3, day 14, FIG. 9. The protocol: (§1) The next day, the culture supernatant was removed by suction and, as described in the Figure, a normal medium, an adipocyte induction medium, or an adipocyte induction medium added with each low-molecular-weight compound and the like was added at 500 μL/well.
(§2) The adipocyte induction medium is a 10% FBS-added DMEM+MDI medium (10% FBS-added DMEM supplemented with 0.5 mM isobutylmethylxanthine (IBMX), 0.5 μM dexamethason and 1 μg/mL Insulin).
(§3) The concentrations of the additives are as follows: • T3: 1 nM • Rosiglitazone: 1 μM • D4476: 2 μM.
(§4) The culture medium was substituted by a fresh one every 3-4 days and the cells were cultured up to day 14.
The cells were washed 3 times with sterile distilled water, Oil Red O staining solution was added, and the mixture was incubated at room temperature for 15 min. Then the cells were washed with sterile distilled water and photographed at a magnification of 100 with a microscope.

For assay [3] the test system is unchanged. As to the kind of experiment: BODIPY, UCP1 and DAPI co-staining (Example 10). Type of assay: cell-based. As to conditions: D4476 2 μM in addition to T3 and Rosiglitazone, day 14, FIG. 10A, 10B. The protocol:
as §1, §2, §3, §4
The cells were fixed with 4% para-formaldehyde and washed with PBS(−).
Then, the cells were reacted in BODIPY 493/503 (Invitrogen)/PBS solution at room temperature for 5 min, washed 3 times with PBS and stained with DAPI. The cells were photographed at a magnification of 200 with a fluorescence microscope.

For assay [4] the test system is unchanged. The protocol:
(§5) Human normal skin-derived fibroblast (human dermal fibroblasts; HDFs) were suspended in a normal medium (10% FBS-added Dulbecco's modified minimum essential medium; DMEM). This was seeded in a 12-well plate at a concentration of 3×10^4 cells/well and culturing was started at 5% CO2/95% humidified air, 37° C. The next day (day 0), the culture supernatant was removed by suction and a normal medium (group 1), an adipocyte induction medium (group 2), or an adipocyte induction medium (groups 3-8) added with ALK5 inhibitor II at concentration of 4 μM was added at 1 mL/well.
The adipocyte induction medium is DMEM added with 1 nM T3, 1 μM Rosiglitazone, 0.5 mM isobutylmethylxanthine (IBMX), 0.5 μM dexamethason, 1 μg/mL Insulin and 10% FBS.
Once every 2 days, the medium was substituted by a fresh one. In groups 3-7, the cells were cultured in an adipocyte induction medium added with ALK5 inhibitor II only in the periods of Days 0-2, Days 0-4, Days 0-6, Days 0-8 and Days 0-10, respectively, and thereafter cultured in an adipocyte induction medium without addition of ALK5 inhibitor II. In group 8, the cells were cultured in an adipocyte induction medium added with ALK5 inhibitor II throughout the whole period of Days 0-14. On day 14, the medium was removed from each well by suction, the cells were washed with PBS(−) and total RNA was extracted from the cells by using RNA easy Mini Kit manufactured by Qiagen. cDNA was synthesized from the RNA by using Rever Tra Ace qPCR RT Master Mix. The cDNA was admixed with Real-time PCR Master Mix, primers specific to UCP1 gene or β actin gene and Taqman probe. qRT-PCR was performed using AB7300 Real-time PCR system. The mRNA level of UCP1 gene was quantified as a ratio to β actin gene mRNA and calculated with the value of fibroblast cultured in the normal medium as 1.

Assay [5] has the same test system. The protocol: as §5
Once every 2 days, the medium was substituted by a fresh one. In groups 3-7, the cells were cultured in an adipocyte induction medium added with ALK5 inhibitor II only in the periods of Days 0-2, Days 0-4, Days 0-6, Days 0-8 and Days 0-10, respectively, and thereafter cultured in an adipocyte induction medium without addition of ALK5 inhibitor II. In group 8, the cells were cultured in an adipocyte induction medium added with ALK5 inhibitor II throughout the whole period of Days 0-14.
The source holds these as a separate data set.

The test system is the same in assay [6]. As to the kind of experiment: UCP1, CIDEA and KCNK3 gene mRNA by real time RT-PCR (Example 17). Type of assay: cell-based. The protocol:
(Day −1). In the control (Ctrl) group, the culture supernatant of the next day (Day 0) was removed by suction and the cells were cultured in a normal medium up to day 14 while substituting the medium with a fresh one once every other day. In groups other than the control (Ctrl) group, the culture supernatant was removed by suction on day 0, and an adipocyte induction medium added with any of ALK5 inhibitor II (4 μM) and LY2157299 (8 μM) was added at 1 mL/well.
Thereafter, the cells were cultured in an adipocyte induction medium free of any compound of ALK5 inhibitor II and LY215799 during Day 9-Day 14. On day 14, the medium was removed by suction from the wells of all groups, and the cells were washed with PBS(−).
On the technique in general: Real-time PCR tracks product formation cycle by cycle.

Where [7] appears, read: ALK5 inhibitor II 4 μM or LY2157299 8 μM up to Day 9, day 14, FIG. 17.

As for `NC(=O)c1ccc(-c2nc(-c3ccc4c(c3)OCCO4)c(-c3ccccn3)[nH]2)cc1` [D4476, 4-[4-(2,3-dihydro-1,4-benzodioxin-6-yl)-5-(2-pyridlnyl-)1H-imidazol-2-yl]-benzamide], the “responsiveness of induced cells to Isoproterenol or FSK stimuli” value in assay [1] is on record as “brown adipocyte-like responsiveness”. The “Oil Red O staining” value in assay [2] was “remarkable Oil Red O staining as compared to the control”. The “lipid droplets stained with Bodipy and UCP1 protein” value in assay [3] is “converted to brown adipocytes expressing lipid droplets stained with Bodipy and UCP1 protein”.
`Cc1cccc(-c2n[nH]cc2-c2ccc3ncccc3n2)n1` [ALK5 Inhibitor II, 2-(3-(6-Methylpyridin-2-yl)-1H-pyrazol-4-yl)-1,5-naphthyridine]: the “UCP1 gene expression (conversion to brown adipocytes)” value in assay [4] (HDFs, ALK5 inhibitor II 4 μM in adipocyte induction medium, day 14, FIG. 13) is “converted to brown adipocytes strongly expressing UCP1 gene”. Besides, the UCP1 gene expression entry in assay [4] (group 6: ALK5 inhibitor II 4 μM for days 0-8, then 6 days without it) is “the highest expression of UCP1 gene was induced”. For the same compound, the UCP1 gene expression result in assay [4] (groups 3-5, 7, 8: ALK5 inhibitor II 4 μM for Days 0-2, 0-4, 0-6, 0-10 or 0-14) was “High expression of UCP1 gene was also induced”. Moreover, the “staining intensity of UCP1 protein and staining positive cells” value in assay [5] (#6: ALK5 inhibitor II 4 μM for days 0-8, then 6 days without it) was “the staining intensity of UCP1 protein was high and many staining positive cells were present”. The “UCP1 protein expression by immunostaining (conversion to brown adipocytes)” value in assay [5] (HDFs, ALK5 inhibitor II 4 μM in adipocyte induction medium, day 14, FIG. 14A, 14B) is recorded as “converted to brown adipocytes highly expressing UCP1 protein”. Besides, in assay [5] (other conditions cultured in the presence of ALK5 inhibitor II (in FIG. #2-5, 7, 8)), the UCP1 protein expression entry was “High expression of UCP1 protein was also detected”. For the same compound, in assay [6] (setting [7]), the CIDEA gene expression entry is “induced into brown adipocytes expressing UCP1 gene, CIDEA gene and KCNK3 gene”; the KCNK3 gene expression entry is “induced into brown adipocytes expressing UCP1 gene, CIDEA gene and KCNK3 gene”; the UCP1 gene expression result is “induced into brown adipocytes expressing UCP1 gene, CIDEA gene and KCNK3 gene”. Moreover, the “strength of induction of UCP1 gene expression, compared with LY2157299” value in assay [6] (ALK5 inhibitor II 4 μM versus LY2157299 8 μM, day 14) is “more strongly induced”.
